According to patent US4436934A, “Bicyclic prostaglandin analogs and method of synthesis” (Iowa State University Research Foundation, Inc., priority 1981, dated 1984):

Tests used:
[1] = system: platelet thrombus (laser micro-injury of small blood vessel); assay: biolaser model of experimental thrombosis (rabbit ear chamber); format: in vivo; conditions: combined with anagrelide at a lower than threshold level
Excerpt: These compounds were studied in vivo in an animal model for experimental thrombosis. The use of this model is described in detail in the reprint, Use of the Biolaser in the Evaluation of Anti-Thrombotic Agents, J. S. Fleming et al. "Platelets and Thrombosis", eds. S. Sherry and A. Scriabrine, University Park Press, 1974, Baltimore, which is incorporated herein by reference.
In brief, a micro-injury is created by a laser beam focused through a microscope onto the endothelium surface of a small blood vessel in a surgically implanted ear chamber of a rabbit. The injury induces the rapid formation of a platelet thrombis which can be measured. […] Prostacyclin is active in the biolaser model when infused intraveneously. The results of these tests preliminarily indicate that there is a super additive interaction between anagrelide and the compounds of this invention. […] To date, no other compounds have undergone significant in vivo analysis in the rabbit ear test.

[2] = system: platelet thrombus (laser micro-injury of small blood vessel); conditions: cited from earlier work; for inhibition of thrombosis (in words): general statement on potent inhibitors of platelet aggregation

Structure (SMILES)	reduction in thrombosis, combination with anagrelide (in words) [1]	inhibition of thrombosis (in words) [2]	activity in the biolaser model (in words) ([2]; infused intravenously)
CCCCCC(O)C#CC1C2CCC(C2)C1C/C=C/CCCC(=O)OC (stereo not shown) [Example 2]	substantial reduction in thrombosis	–	–
O=C1CN2Cc3c(ccc(Cl)c3Cl)N=C2N1 [anagrelide]	–	significant inhibition of this kind of thrombosis	–
CCCCC[C@H](O)/C=C/[C@@H]1[C@H]2C/C(=C/CCCC(=O)O)O[C@H]2C[C@H]1O [prostacyclin]	–	significant inhibition of this kind of thrombosis	active
